{"source": "patent US8835631B2", "about": "“Therapeutic agent for cerebral infarction” (Mitsubishi Tanabe Pharma Corporation, priority 2007, dated 2014)", "key": {"[1]": {"test": "Evaluation of bioavailability in rat", "format": "in vivo, male SD(IGS) rats", "protocol": "Test compound A, test compound B and test compound C were each dissolved in 0.5% aqueous HPMC (hydroxypropyl methylcellulose) solution in the case of oral administration, or in saline in the case of intravenous administration, and they were orally or intravenously administered to male SD(IGS) rats (Charles River Laboratories Japan) by 3 mg/kg. The concentration of unchanged drug in the plasma of each rat was measured, and bioavailability (F(%)) was calculated (F (%)=(AUC0-∞,p.o./AUC0-∞,i.v.,mean)×(Dosei.v./Dosep.o.)×100). The test compound was administered by gavage using an oral gavage needle (p.o.), or administered in the tail vein (i.v.). The blood samples were collected at 15 and 30 min, 1, 2, 4, 6, 8 and 24 hr after administration in the case of oral administration, and 5 and 30 min, 1, 2, 4, 6, 8 and 24 hr after administration in the case of intravenous administration.\nThe results are shown in Tables 4 (test compound A), 5 (test compound B) and 6 (test compound C). The Cmax values for i.v. in Tables 4, 5 and 6 show plasma concentration at 5 min after administration."}, "TNF-α": {"tested_on": "TNF-α", "test": "TNF-α production in LPS-administered mouse", "format": "in vivo, male BALB/c mouse", "protocol": "LPS (lipopolysaccharide, derived from E. coli 0111:B4, Sigma, 500 μg/kg) was intraperitoneally administered to male BALB/c mouse (Charles River Laboratories Japan). After 90 min after LPS administration, the blood was taken under anesthesia, and centrifuged to collect plasma. TNF-α was measured using an Immunoassay Kit (R&D Systems) and IL-10, MCP-1 and IL-6 were measured using an Immunoassay Kit (BIOSOURCE). Test compound A, the compound synthesized in Example 3 (test compound B) and the compound synthesized in Example 7 (test compound C) were dissolved in saline, and the mixture was orally administered at 10 mg/kg 30 min before LPS administration. As shown in the Tables, the effect of each test compound on respective […] cytokines was calculated as the ratio of each cytokine concentration in the blood of the group administered with each test compound to each cytokine concentration in the blood of the group free of administration of each test compound."}, "[2]": {"conditions": "3 mg/kg i.v., plasma, Mean + SD"}, "[3]": {"conditions": "3 mg/kg p.o., plasma, Mean + SD"}}, "note": "Marks after values point to notes of the source that are not given here."}
{"compound": "CC(=O)NC1(c2ccc(CN3CCN(c4ncccn4)CC3)cc2)CC1.Cl", "note": "[test compound A, N-(1-(4-((4-(pyrimidin-2-yl)piperazin-1-yl)methyl)phenyl)cyclopropyl)acetamide•hydrochloride]", "values": [{"measurement": "AUC0-24 h", "setting": "[1]; [2]", "value": "3850 ± 78.4", "unit": "ngh/mL"}, {"measurement": "AUC0-∞", "setting": "[1]; [2]", "value": "3841.3 ± 77.4", "unit": "ngh/mL"}, {"measurement": "Cmax (C5 min, plasma concentration at 5 min after administration)", "setting": "[1]; [2]", "value": "2219.9 ± 103.8^2) ng/mL"}, {"measurement": "F (bioavailability)", "setting": "[1]; 3 mg/kg p.o. vs 3 mg/kg i.v., F = (AUC0-∞,p.o./AUC0-∞,i.v.,mean) × (Dosei.v./Dosep.o.) × 100", "value": 104.3, "unit": "%"}, {"measurement": "AUC0-24 h", "setting": "[1]; [3]", "value": "4032.9 ± 501.8", "unit": "ngh/mL"}, {"measurement": "AUC0-∞", "setting": "[1]; [3]", "value": "4008.2 ± 491.5", "unit": "ngh/mL"}, {"measurement": "Cmax", "setting": "[1]; [3]", "value": 1459.7, "unit": "ng/mL"}, {"measurement": "TNF-α production in LPS model mouse (in words)", "setting": "TNF-α; 10 mg/kg orally 30 min before LPS", "value": "suppressed"}, {"measurement": "TNF-α production (%)", "setting": "TNF-α; Table 1, 10 mg/kg orally 30 min before LPS 500 μg/kg i.p., plasma 90 min after LPS, ratio to group without test compound", "value": 43.5, "unit": "%"}]}
